According to the NIST ThermoML archive (doi:10.1016/j.fluid.2007.11.002):
Where “and” joins values, the source holds several entries; their conditions need not be identical. Identical values can stand only once. ± gives the expanded uncertainty stated by the source.

Assays:
[1] = Liquid, Ebulliometric method (Recirculating still)
[2] = refractive index (Na D-line) (dimensionless); settings: 298.15 K; 101.33 kPa; Liquid; Standard Abbe refractometry

C1COCCO1 [1,4-dioxane]
vapor or sublimation pressure ([1]; 323.15 K): 15.93 ± 0.36 kPa
vapor or sublimation pressure ([1]; 333.15 K): 23.94 ± 0.44 kPa and 24 ± 0.42 kPa
vapor or sublimation pressure ([1]; 335.85 K): 26.66 ± 0.44 kPa
vapor or sublimation pressure ([1]; 343.15 K): 35.19 ± 0.59 kPa and 35.11 ± 0.54 kPa and 35.2 ± 0.54 kPa
vapor or sublimation pressure ([1]; 353.15 K): 50.78 ± 0.8 kPa and 50.41 ± 0.68 kPa and 50.53 ± 0.68 kPa
vapor or sublimation pressure ([1]; 354.65 K): 53.33 ± 0.8 kPa
vapor or sublimation pressure ([1]; 363.15 K): 70.91 ± 0.88 kPa
vapor or sublimation pressure ([1]; 366.95 K): 79.99 ± 1 kPa
vapor or sublimation pressure ([1]; 374.45 K): 101.33 ± 1.1 kPa
Normal boiling temperature [1]: 101.30 ± 0.22 °C
refractive index [2]: 1.4205 ± 0.0012

CC(C)CO [2-methyl-1-propanol]
vapor or sublimation pressure ([1]; 333.15 K): 12.5 ± 0.34 kPa
vapor or sublimation pressure ([1]; 343.15 K): 20.35 ± 0.4 kPa
vapor or sublimation pressure ([1]; 353.15 K): 32.25 ± 0.55 kPa and 32.19 ± 0.5 kPa
Normal boiling temperature [1]: 107.90 ± 0.22 °C
refractive index [2]: 1.3939 ± 0.0012

CC(C)(C)O [2-methylpropan-2-ol]
vapor or sublimation pressure ([1]; 323.15 K): 24.4 ± 0.48 kPa
vapor or sublimation pressure ([1]; 325.05 K): 26.66 kPa
vapor or sublimation pressure ([1]; 333.15 K): 39.06 ± 0.62 kPa
vapor or sublimation pressure ([1]; 340.05 K): 53.33 kPa
vapor or sublimation pressure ([1]; 343.15 K): 60.93 ± 0.89 kPa
vapor or sublimation pressure ([1]; 349.75 K): 79.99 kPa
vapor or sublimation pressure ([1]; 353.15 K): 92.26 ± 1.2 kPa
vapor or sublimation pressure ([1]; 355.55 K): 101.33 kPa
Normal boiling temperature [1]: 82.40 ± 0.22 °C
refractive index [2]: 1.3823 ± 0.0012

CCC(C)O (stereo not given) [butan-2-ol]
vapor or sublimation pressure ([1]; 343.15 K): 29.86 ± 0.59 kPa
vapor or sublimation pressure ([1]; 363.15 K): 70.25 ± 0.9 kPa
Normal boiling temperature [1]: 99.50 ± 0.22 °C
refractive index [2]: 1.3955 ± 0.0012
